Assay results taken from patent US10329249B1, “Sulindac derivatives” (KING SAUD UNIVERSITY, priority 2018, dated 2019).

Columns and labels:
[1] = DPPH free radical scavenging (antioxidant activity); settings: 100 μg/mL compound in 3 mL 0.004% DPPH, 520 nm after 30 min; mean of three replicates ±SD
Description: The antioxidant activity was measured based on the scavenging activity of the stable DPPH free radical. 100 μg/mL of the twenty-five sulindac derivative compounds were added to 3 mL 0.004% DPPH solution. Methanol was added to 3 mL 0.004% DPPH solution for the control sample. Absorbance was determined at 520 nm after 30 min. Butylated hydroxytoluene (BHT) was used as a reference drug. The percent inhibition was calculated by the equation:
[formula] where At is the absorbance of the compound and A0 is the absorbance of the control.

Row | SMILES | melting point [°C] | Scavenging Effect [1] [%]
1 | Cc1cc(C(C)(C)C)c(O)c(C(C)(C)C)c1 [BHT, Butylated hydroxytoluene, reference compound] |  | 90.6 ± 3.83
2 | CC1=C(CC(=O)N/N=C\c2ccccc2[N+](=O)[O-])c2cc(F)ccc2/C1=C\c1ccc([S+](C)[O-])cc1 (stereo not drawn) [Compound 1, N′-(2-nitrobenzylidene)-2-((1Z)-1-(4-(methylsulfinyl)benzylidene)-5-fluoro-2-methyl-1H-inden-3-yl)acetohydrazide] | 148 to 150 | 18.53 ± 4.86
3 | CC1=C(CC(=O)N/N=C\c2ccc([N+](=O)[O-])cc2)c2cc(F)ccc2/C1=C\c1ccc([S+](C)[O-])cc1 (stereo not drawn) [Compound 2, N′-(4-nitrobenzylidene)-2-((1Z)-1-(4-(methylsulfinyl)benzylidene)-5-fluoro-2-methyl-1H-inden-3-yl)acetohydrazide] | 220 to 222 | 19.26 ± 5.32
4 | CC1=C(CC(=O)N/N=C\c2cccc(O)c2)c2cc(F)ccc2/C1=C\c1ccc([S+](C)[O-])cc1 (stereo not drawn) [Compound 5] |  | 42.20 ± 13.20
5 | COc1cccc(/C=N\NC(=O)CC2=C(C)/C(=C/c3ccc([S+](C)[O-])cc3)c3ccc(F)cc32)c1 (stereo not drawn) [Compound 6] |  | 71.03 ± 5.31
6 | CC1=C(CC(=O)N/N=C\c2ccc(O)cc2)c2cc(F)ccc2/C1=C\c1ccc([S+](C)[O-])cc1 (stereo not drawn) [Compound 11, N′-(4-hydroxybenzylidene)-2-((1Z)-1-(4-(methylsulfinyl)benzylidene)-5-fluoro-2-methyl-1H-inden-3-yl)acetohydrazide] |  | 45.06 ± 22.57
7 | COc1ccccc1/C=N\NC(=O)CC1=C(C)/C(=C/c2ccc([S+](C)[O-])cc2)c2ccc(F)cc21 (stereo not drawn) [Compound 12, N′-(2-methoxybenzylidene)-2-((1Z)-1-(4-(methylsulfinyl)benzylidene)-5-fluoro-2-methyl-1H-inden-3-yl) acetohydrazide] |  | 39.73 ± 15.65
8 | COc1cc(OC)c(/C=N\NC(=O)CC2=C(C)/C(=C/c3ccc([S+](C)[O-])cc3)c3ccc(F)cc32)c(OC)c1 (stereo not drawn) [Compound 16, N′-(2,4,6-timethoxybenzylidene)-2-((1Z)-1-(4-(methylsulfinyl)benzylidene)-5-fluoro-2-methyl-1H-inden-3-yl)acetohydrazide] | 193 to 195 | 30.80 ± 2.50
9 | CCOc1ccc(/C=N\NC(=O)CC2=C(C)/C(=C/c3ccc([S+](C)[O-])cc3)c3ccc(F)cc32)cc1OC (stereo not drawn) [Compound 18, N′-(3-methoxy-4-ethoxybenzylidene)-2-((1Z)-1-(4-(methylsulfinyl)benzylidene)-5-fluoro-2-methyl-1H-inden-3-yl)acetohydrazide] | 158 to 160 | 
10 | CC1=C(CC(=O)N/N=C\c2cccc(O)c2O)c2cc(F)ccc2/C1=C\c1ccc([S+](C)[O-])cc1 (stereo not drawn) [Compound 23, N′-(2,3-dihydroxybenzylidene)-2-((1Z)-1-(4-(methylsulfinyl)benzylidene)-5-fluoro-2-methyl-1H-inden-3-yl)acetohydrazide] |  | 33.10 ± 8.41
11 | CC1=C(CC(=O)N/N=C\c2ccc(O)c(O)c2O)c2cc(F)ccc2/C1=C\c1ccc([S+](C)[O-])cc1 (stereo not drawn) [Compound 25, N′-(2,3,4-trihydroxybenzylidene)-2-((1Z)-1-(4-(methylsulfinyl)benzylidene)-5-fluoro-2-methyl-1H-inden-3-yl)acetohydrazide] | 195 to 197 | 30.06 ± 3.30

The next lines start with results.

Row | melting point [°C] | SMILES | Scavenging Effect [1] [%]
12 | 138 to 140 | CC1=C(CC(=O)N/N=C\c2ccccc2)c2cc(F)ccc2/C1=C\c1ccc([S+](C)[O-])cc1 (stereo not drawn) [Compound 3] | 67.40 ± 9.25
13 | 228 to 230 | CC1=C(CC(=O)N/N=C\c2ccc(Cl)cc2)c2cc(F)ccc2/C1=C\c1ccc([S+](C)[O-])cc1 (stereo not drawn) [Compound 4, N′-(4-chlorobenzylidene)-2-((1Z)-1-(4-(methylsulfinyl)benzylidene)-5-fluoro-2-methyl-1H-inden-3-yl)acetohydrazide] | 39.86 ± 10.80
14 | 165 to 167 | CC1=C(CC(=O)N/N=C\c2cccc([N+](=O)[O-])c2)c2cc(F)ccc2/C1=C\c1ccc([S+](C)[O-])cc1 (stereo not drawn) [Compound 7] | 49.36 ± 5.57
15 | 233 to 235 | COc1cc(OC)c(OC)cc1/C=N\NC(=O)CC1=C(C)/C(=C/c2ccc([S+](C)[O-])cc2)c2ccc(F)cc21 (stereo not drawn) [Compound 9] | 78.97 ± 9.36
16 | 165 to 167 | COc1cc(/C=N\NC(=O)CC2=C(C)/C(=C/c3ccc([S+](C)[O-])cc3)c3ccc(F)cc32)cc(OC)c1OC (stereo not drawn) [Compound 10, N′-(3,4,5-trimethoxybenzylidene)-2-((1Z)-1-(4-(methylsulfinyl)benzylidene)-5-fluoro-2-methyl-1H-inden-3-yl)acetohydrazide] | 42.33 ± 18.38
17 | 185 to 187 | COc1ccc(/C=N\NC(=O)CC2=C(C)/C(=C/c3ccc([S+](C)[O-])cc3)c3ccc(F)cc32)c(OC)c1 (stereo not drawn) [Compound 13, N′-(2,4-dimethoxybenzylidene)-2-((1Z)-1-(4-(methylsulfinyl)benzylidene)-5-fluoro-2-methyl-1H-inden-3-yl)acetohydrazide] | 23.07 ± 6.95
18 | 203 to 205 | COc1cccc(/C=N\NC(=O)CC2=C(C)/C(=C/c3ccc([S+](C)[O-])cc3)c3ccc(F)cc32)c1OC (stereo not drawn) [Compound 14, N′-(2,3-dimethoxybenzylidene)-2-((1Z)-1-(4-(methylsulfinyl)benzylidene)-5-fluoro-2-methyl-1H-inden-3-yl)acetohydrazide] | 62.93 ± 6.72
19 | 230 to 232 | COc1ccc(/C=N\NC(=O)CC2=C(C)/C(=C/c3ccc([S+](C)[O-])cc3)c3ccc(F)cc32)cc1OC (stereo not drawn) [Compound 15, N′-(3,4-dimethoxybenzylidene)-2-((1Z)-1-(4-(methylsulfinyl)benzylidene)-5-fluoro-2-methyl-1H-inden-3-yl)acetohydrazide] | 40.60 ± 14.40
20 | 185 to 187 | COc1ccc(/C=N\NC(=O)CC2=C(C)/C(=C/c3ccc([S+](C)[O-])cc3)c3ccc(F)cc32)c(OC)c1OC (stereo not drawn) [Compound 17, N′-(2,3,4-timethoxybenzylidene)-2-((1Z)-1-(4-(methylsulfinyl)benzylidene)-5-fluoro-2-methyl-1H-inden-3-yl)acetohydrazide] | 63.56 ± 0.47
21 | 218 to 220 | COc1cc(/C=N\NC(=O)CC2=C(C)/C(=C/c3ccc([S+](C)[O-])cc3)c3ccc(F)cc32)cc(OC)c1O (stereo not drawn) [Compound 19, N′-(3,5-dimethoxy-4-hydroxybenzylidene)-2-((1Z)-1-(4-(methylsulfinyl)benzylidene)-5-fluoro-2-methyl-1H-inden-3-yl)acetohydrazide] | 
22 | 193 to 195 | CCOc1cc(/C=N\NC(=O)CC2=C(C)/C(=C/c3ccc([S+](C)[O-])cc3)c3ccc(F)cc32)ccc1O (stereo not drawn) [Compound 20, N′-(3-ethoxy-4-hydroxybenzylidene)-2-((1Z)-1-(4-(methylsulfinyl)benzylidene)-5-fluoro-2-methyl-1H-inden-3-yl)acetohydrazide] | 35.50 ± 9.05
23 | 180 to 182 | CC1=C(CC(=O)N/N=C\c2cc(O)ccc2O)c2cc(F)ccc2/C1=C\c1ccc([S+](C)[O-])cc1 (stereo not drawn) [Compound 21, N′-(2,5-dihydroxybenzylidene)-2-((1Z)-1-(4-(methylsulfinyl)benzylidene)-5-fluoro-2-methyl-1H-inden-3-yl)acetohydrazide] | 38.10 ± 10.92
24 | 208 to 210 | COc1ccc(/C=N\NC(=O)CC2=C(C)/C(=C/c3ccc([S+](C)[O-])cc3)c3ccc(F)cc32)cc1O (stereo not drawn) [Compound 22, N′-(3-hydroxy-4-methoxybenzylidene)-2-((1Z)-1-(4-(methylsulfinyl)benzylidene)-5-fluoro-2-methyl-1H-inden-3-yl)acetohydrazide] | 51.40 ± 16.66
25 | 210 to 212 | COc1cccc(/C=N\NC(=O)CC2=C(C)/C(=C/c3ccc([S+](C)[O-])cc3)c3ccc(F)cc32)c1O (stereo not drawn) [Compound 24] | 27.66 ± 2.12
